One data set has as its system Pseudomonas aeruginosa. Kind of data set: Disk assay, in vitro activity. The data set is classed as cell-based.
In data set [1] the test system is Staphylococcus epidermidis. Kind of data set: Disk assay, in vitro activity. In kind it is cell-based.
The subject of the next data set is Bacillus subtilis. Put plainly: Disk assay, in vitro activity. In kind it is cell-based.
In a further data set the test system is Salmonella typhimurium. Put plainly: Disk assay, in vitro activity. The data set is classed as cell-based.
The next data set deals with Mycobacterium bovis BCG. The data set is classed as cell-based.
The subject of another data set is M. avium avium. Kind of data set: Disk assay, in vitro activity. In kind it is cell-based.
The subject of a further data set is Escherichia coli. Kind of data set: Disk assay, in vitro activity. In kind it is cell-based.
Another data set deals with Moraxella catarrhalis. Put plainly: Disk assay, in vitro activity. The data set is classed as cell-based.
Another data set has as its system Staphylococcus aureus. Put plainly: Disk assay, in vitro activity. In kind it is cell-based.
In data set [2] the test system is Mycobacterium intracellulare. Kind of data set: Disk assay, in vitro activity. In kind it is cell-based.
In the next data set the test system is Acinetobacter baumannii. Kind of data set: Disk assay, in vitro activity. In kind it is cell-based.
Data set [3] deals with intracellular Mtb H37Rv in THP-1 cells. Kind of data set: Dose dependent activity against intracellular Mtb, high content analysis of fluorescent Mtb (Fig 3E). The data set is classed as cell-based, Mycobacterium tuberculosis.
The subject of data set [4] is Campylobacter jejuni in Caco-2 cells. Kind of data set: Caco-2 infection with C. jejuni, CFU. Particulars: two-fold serial dilutions, 24h. In kind it is cell-based. Here is the method: Isolated colonies from overnight culture grown on Muller -Hinton (MH) plates in microaerophilic conditions were inoculated into liquid MH media and grown overnight. Bacteria were pelleted by centrifugation and resuspended in DMEM media. The bacteria were then added at an MOI of 100-400 to Caco-2 cells in 24-well plates at 10^5 cells per well. After 2 h of incubation, infected cells were washed with fresh DMEM and incubated an additional 2 h with 100-200 μg/ml gentamycin followed by the addition of test compounds and incubation for 24 h. After incubation, cells were washed with fresh DMEM and lysed by osmotic shock with sterile […] and passed through a 27G needle with a syringe. The lysate was serially diluted and plated in MH agar using the pouring plate method. CFU were then counted after a 24 - 48 h incubation. To assess cell survival, a duplicate of the previous conditions was used to undergo MTT assay or cell count with the CX5 using DAPI staining. […]
intracellular bacteria. Related to Star Methods describing C. Jejuni and S. enterica infections. […] Percent inhibition was calculated by subtracting CFU values as a percentage of the untreated DMSO control (plotted at 0.1 µM) from 100%. […] Curve was fit using non-linear regression analysis of log (inhibitor) vs. response (variable slope) calculated with GraphPad Prism 10. […]

Data set [5] relates to Mycobacterium tuberculosis H37Rv auxotroph, mc2 6206. In kind it is cell-based.
Data set [6] concerns panel of bacteria, including Mtb. The data set is classed as cell-based.
In data set [7] the test system is intracellular M. tuberculosis H37Rv (WT). Put plainly: microbe, parasite or virus in culture. The data set is classed as cell-based. Particulars: Mycobacterium tuberculosis, 72 h.
The test system of the next data set is THP-1 cells. Kind of data set: Annexin V FITC apoptosis assay, flow cytometry. In kind it is cell-based, human. (In general: Flow cytometry measures light scatter and fluorescence of single cells or particles in a stream.)
For data set [8], the system named is Mycobacterium tuberculosis H37Rv in broth. Kind of data set: In-broth activity analysis (resazurin assay). (The colour change of resazurin is a common sign of viable cells or microbes.)
Data set [9] deals with intracellular Mtb in GSK3α KO / GSK3β KO THP-1 cells. In kind it is cell-based, Mycobacterium tuberculosis. To be noted: 10 μM P-4423632, 72 h.
A short description of data set [10]: Cytotoxicity analysis (MTT assay). In kind it is cell-based. Particulars: human, differentiated THP-1 cells, toxicity level to THP-1 cells. As to the method:
The MTT assay was performed as described previously.[19] […] At the 69.5-hour time point, 25 μL of 3-(4,5-dimethylthiazol-2-yl)-2,5-diphenyltetrazolium bromide (MTT) solution were added to each well. […] The absorbance of each well was read at 570 nm and these values were used to calculate the percentage of viable cells.
Background: Tetrazolium assays rely on reduction of a dye to a coloured formazan, in cell work by metabolically active cells.

A further data set deals with MRSA. Put plainly: Disk assay, in vitro activity. In kind it is cell-based. Particulars: up to 25 μg of P-4423632.
The next data set has as its system Mycobacterium smegmatis. The data set is classed as cell-based. Particulars: up to 100 μg of P-4423632.
In data set [11] the test system is Mycobacterium tuberculosis H37Rv in THP-1. Put plainly: Minimal inhibitory concentrations of P-4423632 against Mtb H37Rv in THP-1 (Table S3). The data set is classed as cell-based. The text has this:
Table S3. Minimal inhibitory concentrations of P-4423632 against Mycobacterium tuberculosis H37Rv in cell lines and in broth, and inhibitory concentrations (toxicity level) to THP-1 cells. Related to Figure 2.

The target in the next data set is T1, GSK3β (Homo sapiens, UniProt P49841).
T1 construct: purchased SignalChem (Richmond, BC, Canada), contract assay service
Put plainly: in vitro inhibition of GSK3β, ADP-Glo Kinase assay (SignalChem). In kind it is biochemical. To be noted: normalized to negative control. As to the method: Samples of three GSK3 inhibitors (P-4423632, P-0717632, P-3817632) were sent to SignalChem (Richmond, BC, Canada) where a compound selectivity assay was performed and the IC50 values of the inhibitors were determined.
Figure S3: in vitro inhibition of GSK3β by selected inhibitors, related to Star Methods: Determination of IC50 of GSK3 inhibitors. GSK3β activity was measured using the ADP-GloTM Kinase assay and normalized to the negative control (100% kinase activity). Curve was fit using non-linear regression analysis calculated with GraphPad Prism software.
(also on this page, place not known: % Inhibition GSK3β % Inhibition GSK3β % Inhibition GSK3β IC50)

For another data set, the system named is Enterococcus faecalis. Put plainly: Disk assay, in vitro activity. In kind it is cell-based. Particulars: up to 25 μg of P-4423632.
For another data set, the system named is Mycobacterium abscessus. In kind it is cell-based. Particulars: up to 100 μg of P-4423632.
The test system of data set [12] is Salmonella enterica serovar Typhimurium in THP-1 cells. Put plainly: THP-1 infection with S. typhimurium, high content screening. In kind it is cell-based. Particulars: MOI 10:1, 24h.
In data set [13] the test system is GSK3α Y279 / GSK3β Y216 phosphorylation. Put plainly: Western blot of Y279 - Y216 phosphorylation status of GSK3α and GSK3β in THP-1 cells. In kind it is cell-based, human.
The next data set concerns Mycobacterium marinum. Kind of data set: Disk assay, in vitro activity. In kind it is cell-based. To be noted: up to 25 μg of P-4423632.
Data set [14] relates to Mycobacterium tuberculosis H37Rv in hMDM. Kind of data set: microbe, parasite or virus in culture. In kind it is cell-based.
Data set [15] has as its system intracellular M. tuberculosis ΔptpA. The data set is classed as cell-based, Mycobacterium tuberculosis.
Another data set concerns Mtb infection. Set-up: method as in PMID 35095838. To be noted: GSK3α/β inhibition ref 56; cited from earlier work.

≈ marks a conversion by molar mass, not a printed value. Where “and” joins values, the source holds several entries; their conditions need not be identical. Equal entries are not always repeated. Where two headings read alike, the source gives them in different places.

T1 sequence (P49841 whole entry): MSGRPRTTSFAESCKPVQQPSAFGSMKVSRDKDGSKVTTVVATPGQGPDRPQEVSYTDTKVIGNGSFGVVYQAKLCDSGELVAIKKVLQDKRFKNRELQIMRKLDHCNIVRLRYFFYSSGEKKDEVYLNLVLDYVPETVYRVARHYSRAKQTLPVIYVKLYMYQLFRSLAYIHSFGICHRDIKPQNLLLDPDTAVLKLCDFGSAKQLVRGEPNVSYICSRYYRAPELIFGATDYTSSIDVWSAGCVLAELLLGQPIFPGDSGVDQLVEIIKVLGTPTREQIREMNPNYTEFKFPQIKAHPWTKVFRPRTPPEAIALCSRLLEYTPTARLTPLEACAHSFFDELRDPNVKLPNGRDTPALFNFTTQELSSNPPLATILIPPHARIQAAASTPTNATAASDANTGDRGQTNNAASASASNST

In the case of Gentamycin [reference compound], the “Control (mm), disk assay clearing” value in the data set with Pseudomonas aeruginosa (Gen 10 μg) came to 21 mm; in data set [1] (Gen 10 μg), 26 mm; in the data set on Bacillus subtilis (Gen 10 μg) it was 24 mm; in the data set with Salmonella typhimurium (Gen 10 μg) it was 20 mm; in the data set on Mycobacterium bovis BCG (Gen 10 μg) it was 30 mm; in the data set with M. avium avium (Gen 12.5 μg), 21 mm. The “Control (mm), disk assay clearing” value worked out at 18 mm in the data set on Escherichia coli (Gen 10 μg); 30 mm in the data set on Moraxella catarrhalis (Gen 10 μg); 25 mm with Staphylococcus aureus (Gen 10 μg); 20 mm in data set [2] (Gen 12.5 μg); 20 mm in the data set on Acinetobacter baumannii (Gen 10 μg).

As a reminder, the IC50 is the point on the concentration scale where inhibition reaches its midpoint. A word on the IC90: it is the concentration needed for an effect of 90%. With `O=C(NCc1ccccn1)Nc1cc(N2CC(CCc3ccccc3)CC2=O)ccn1` (stereo not shown) [P-4423632], the “dose-dependent activity against intracellular Mtb” value in data set [3] is reported as “dose-dependent activity”. Further, the Disk assay susceptibility entry (in the data set on Pseudomonas aeruginosa (up to 25 μg of P-4423632); in [5]; in data set [1] (up to 25 μg of P-4423632); in the data set with Bacillus subtilis (up to 25 μg of P-4423632); in the data set on Salmonella typhimurium (up to 25 μg of P-4423632); in the data set on Mycobacterium bovis BCG (up to 25 μg of P-4423632)) was “R” each time. Further, the Disk assay susceptibility entry (in the data set with M. avium avium (up to 25 μg of P-4423632); in the data set with Escherichia coli (up to 25 μg of P-4423632); in the data set with Moraxella catarrhalis (up to 25 μg of P-4423632); in the data set with Staphylococcus aureus (up to 25 μg of P-4423632); in data set [2] (up to 25 μg of P-4423632); in the data set on MRSA) was “R” in each case. For the same molecule, the Disk assay susceptibility entry with Mycobacterium smegmatis, in the data set on Enterococcus faecalis, in the data set on Mycobacterium abscessus, with Mycobacterium marinum and in the data set on Acinetobacter baumannii (up to 25 μg of P-4423632) was “R” throughout. The “activity against intracellular C. jejuni” value in data set [4] is on record as “active in a dose-dependent manner”. Besides, the “activity in disk-diffusion antibiotics susceptibility assay” value in data set [6] was “inactive”. The MIC25 in data set [7] was found to be 2.9 µM (≈ 1.2 µg/mL). Besides, in [7], the MIC50 is 6.4 µM (≈ 2.66 µg/mL). The Apoptotic cells in the data set with THP-1 cells is 16.31% and 30.57% and 31.59%. Further, in the data set with THP-1 cells, the Dead cells is 9.32% and 6.98%. The Live cells in the data set on THP-1 cells is 67.62% and 58.79% and 58.44%. The “effect on apoptosis of infected THP-1 cells” value in the data set with THP-1 cells is “upregulation of apoptosis”. The “effect on host cell viability” value with hMDM is recorded as “no effect on host cell viability”. Also, the “in-broth MIC50 compared to intracellular activity” value in data set [8] (in broth vs intracellular) is “over 10 fold”. In addition, the half-maximal inhibitory concentration (IC50) in data set [8] (read-out: (M)IC50, Mtb H37Rv in broth) stood at 3.88e-05 M; in data set [11] (H37RV, THP-1, read-out: (M)IC50), 2.31e-06 M; against GSK3β it was 0.748 µM; in [14] (Mycobacterium tuberculosis, Macrophage, Mtb H37Rv in hMDM) it was 4.17 µM. In addition, the concentration for an effect of 90% (IC90) in data set [8] (read-out: (M)IC90, Mtb H37Rv in broth) came to 4.33e-05 M; in [11] (Mtb H37Rv in THP-1), 16 µM. Also, the figures for the “Reduction % of intracellular Mtb survival vs untreated counterpart” value in data set [9] (GSK3α KO THP-1 cells) and in data set [9] (GSK3β KO THP-1 cells) were “over 75%” and approximately 50%, respectively. Moreover, in [10] (read-out: (M)IC50, cytotoxicity in THP1), the IC50 at 72 h was found to be 7.78e-05 M. In data set [10] (read-out: (M)IC90, cytotoxicity in THP1), the IC90 at 72 h turned out to be 0.000115 M. For the same molecule, the “activity against intracellular S. Typhimurium” value in [12] is on record as “active in a dose-dependent manner”. In addition, the “phosphorylation of GSK3α Y279 and GSK3β Y216” value in data set [13] was “reduced phosphorylation of both Y279 and Y216”. In addition, the “effect on Mtb intracellular replication in hMDMs” value in [14] (hMDMs combined from two donors, 72 h) is “restricted Mtb intracellular replication in a dose dependent manner”. In addition, in data set [15], the “MIC25 ΔptpA” value is more than 25 µM. Further, in data set [15], the “MIC50 ΔptpA” value is more than 25 µM.

In data set [7], `CSc1ccc(-n2cnc3ccc(-c4nnc(CCc5cccc(C(F)(F)F)c5)o4)cc32)cc1` [P-3817632] had an MIC25 of 0.6 µM (≈ 0.288 µg/mL) and an MIC50 of 2 µM (≈ 0.961 µg/mL). This molecule registered an IC50 against GSK3β of 0.28 µM. In data set [15], the “MIC25 ΔptpA” value came out at 13.8 µM (≈ 6.63 µg/mL) and the “MIC50 ΔptpA” value is on record as more than 25 µM.

For the molecule `Cn1cc(C2=C(c3ccc(Cl)cc3Cl)C(=O)NC2=O)c2ccccc21` [SB216763], the “effect on Mtb infection” value in the data set on Mtb infection is given as “increased Mtb infection”.

As for `Cc1nnc(-c2ccc3occ(-c4ccc([S+](C)[O-])c(OC(F)(F)F)c4)c3c2)o1` (stereo not shown) [P-5782442], in [7], the MIC25 was determined as 1.6 µM (≈ 0.676 µg/mL) and the MIC50 is more than 25 µM. In addition, in data set [15], the “MIC25 ΔptpA” value is given as more than 25 µM and the “MIC50 ΔptpA” value is more than 25 µM.

For `CSc1ccc(-n2cnc3ccc(-c4nnc(CCc5cccc(C#N)c5)o4)cc32)cc1` [P-0717632], the MIC50 in data set [7] is 0.4 µM (≈ 0.175 µg/mL). Further, in data set [15], the “MIC25 ΔptpA” value was more than 25 µM and the “MIC50 ΔptpA” value was more than 25 µM.

Source of the values: paper PMC11340618 (iScience, 2024).
